According to patent US20160122307A1, “PERHYDROQUINOXALINE DERIVATIVES” (DR. AUGUST WOLFF GMBH & CO. KG ARZNEIMITTEL, priority 2013, published 2016):
pEC50: −log10 of the molar value. Where two headings read alike, the source gives them in different places.

Target: Human opiate κ receptors (Homo sapiens, UniProt P41145)
Test: κ opioid receptor functional assay, [35S]GTPγS binding (assay C)
Assay type: biochemical
Conditions: for activation at 1 µM: 0.5 h, read-out: % activation functional assay at 1 μM
[1] = read-out: EC50 (nM) [35S]GTPγS binding

Sequence of Human opiate κ receptors (P41145 whole entry): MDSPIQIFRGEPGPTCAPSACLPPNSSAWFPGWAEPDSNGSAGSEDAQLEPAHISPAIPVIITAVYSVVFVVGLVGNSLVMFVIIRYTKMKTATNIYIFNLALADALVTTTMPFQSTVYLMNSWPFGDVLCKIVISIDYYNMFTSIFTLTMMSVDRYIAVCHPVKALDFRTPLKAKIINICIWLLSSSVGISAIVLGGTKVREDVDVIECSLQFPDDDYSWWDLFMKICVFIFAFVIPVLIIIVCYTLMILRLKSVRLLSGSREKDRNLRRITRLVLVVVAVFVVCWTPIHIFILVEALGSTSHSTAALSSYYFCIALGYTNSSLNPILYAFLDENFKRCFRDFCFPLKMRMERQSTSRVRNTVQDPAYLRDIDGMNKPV

SMILES	activation at 1 µM	EC50 (GTPγS EC50 (nM))	other results
O=C(Cc1ccc(Cl)c(Cl)c1)N1CCN(Cc2ccccc2)[C@H]2CCC[C@H](N3CCCC3)[C@H]21 (racemic) [Example 15]	89%	< 10 nM	activation (% of control) at 1 μM: 89 % of control; EC50 (EC50 (nM) [35S]GTPγS binding): 7.39 nM
COC(=O)N1CCN(C(=O)Cc2ccc(Cl)c(F)c2)C2C(N3CCCC3)CCCC21 (racemic) [Example 19]	100%	< 10 nM	
COC(=O)C(=O)N1CCN(C(=O)Cc2ccc(Cl)c(Cl)c2)C2C(N3CCCC3)CCCC21.Cl (stereo not drawn) [Example 103]			% activation functional assay at 1 μM: 98%; pEC50 (read-out: GTPγS EC50): > 8.00
COC(=O)CC(=O)N1CCN(C(=O)Cc2ccc(Cl)c(Cl)c2)C2C(N3CCCC3)CCCC21 (racemic) [Example 36]	93%	< 10 nM	activation (% of control) at 1 μM: 93 % of control; EC50 (EC50 (nM) [35S]GTPγS binding): 9.74 nM
COC(=O)N1CCN(C(=O)Cc2ccc(F)c(F)c2)C2C(N3CCCC3)CCCC21 (racemic) [Example 18]	112%	< 10 nM	
O=C(c1ccco1)N1CCN(C(=O)Cc2ccc(Cl)c(Cl)c2)C2C(N3CCCC3)CCCC21 (racemic) [Example 29]	96%		
O=C(Cc1ccc(Cl)c(Cl)c1)N1CCN(C(=O)OCc2ccccc2)[C@H]2CCC[C@H](N3CCCC3)[C@H]21 (racemic) [Example 16]	102%	< 10 nM	
CC(C)NC(=O)N1CCN(C(=O)Cc2ccc(Cl)c(Cl)c2)[C@@H]2[C@@H](N3CCCC3)CCC[C@@H]21 [Example 99]	100%	< 10 nM	
CN(C)C(=O)C(=O)N1CCN(C(=O)Cc2ccc(Cl)c(Cl)c2)[C@@H]2[C@@H](N3CCCC3)CCC[C@@H]21.Cl [Example 116]			% activation functional assay at 1 μM: 111%; pEC50 (read-out: GTPγS EC50): 7.00 to 8.00
COC(=O)N1CCN(C(=O)Cc2ccc(F)c(Cl)c2)C2C(N3CCCC3)CCCC21 (racemic) [Example 20]	96%	< 10 nM	
COC(=O)N1CCN(C(=O)Cc2ccc(C(F)(F)F)c(Cl)c2)[C@@H]2[C@@H](N3CC[C@H](O)C3)CCC[C@@H]21 [Example 108]	100%	< 10 nM	
O=C(Cc1ccc(Cl)c(Cl)c1)N1CCN(Cc2cnc[nH]2)C2CCCC(N3CCCC3)C21 (stereo not drawn) [AA, reference compound]			activation (% of control) at 1 μM: 89 % of control; EC50 [1]: 56 nM
NC(=O)COC(=O)N1CCN(C(=O)Cc2ccc(Cl)c(Cl)c2)C2C(N3CCCC3)CCCC21 (racemic) [Example 68]	104%	10 to 100 nM	
COC(=O)COC(=O)N1CCN(C(=O)Cc2ccc(Cl)c(Cl)c2)[C@@H]2[C@@H](N3CCCC3)CCC[C@@H]21 [Example 101]	99%	< 10 nM	
O=C(c1ccccc1)N1CCN(C(=O)Cc2ccc(Cl)c(Cl)c2)C2C(N3CCCC3)CCCC21 (stereo not drawn) [L, reference compound]			activation (% of control) at 1 μM: 74 % of control
COC(=O)CCC(=O)N1CCN(C(=O)Cc2ccc(Cl)c(Cl)c2)[C@H]2[C@H]1CCC[C@@H]2N1CCCC1 (racemic) [Q, reference compound]			pEC50: 6.28; activation (% of control) at 1 μM: 61 % of control
COC(=O)C(=O)N1CCN(C(=O)Cc2ccc(Cl)c(Cl)c2)C2C(N3CCCC3)CCCC21 (racemic) [Example 65]	104%	< 10 nM	
COC(=O)N1CCN(C(=O)Cc2ccc(F)c(OC)c2)C2C(N3CCCC3)CCCC21 (racemic) [Example 21]	103%	10 to 100 nM	
COc1ccc(CN2CCN(C(=O)Cc3ccc(Cl)c(Cl)c3)C3C(N4CCCC4)CCCC32)cc1 (stereo not drawn) [X, reference compound]			activation (% of control) at 1 μM: 91 % of control; EC50 [1]: 26 nM
CS(=O)(=O)N1CCN(C(=O)Cc2ccc(Cl)c(Cl)c2)C2C(N3CCC(O)C3)CCCC21.Cl (stereo not drawn) [Example 121]			% activation functional assay at 1 μM: 106%; pEC50 (read-out: GTPγS EC50): > 8.00
O=C(O)CC(=O)N1CCN(C(=O)Cc2ccc(Cl)c(Cl)c2)C2C(N3CCCC3)CCCC21 (racemic) [AD, reference compound]			activation (% of control) at 1 μM: 22 % of control; activation of the kappa opioid receptors at 1 μM: no or little activation; EC50 [1]: > 1000 nM; pEC50 (read-out: EC50 kappa opioid receptor activation): < 6.00
O=C(C1CCNC1)N1CCN(C(=O)Cc2ccc(Cl)c(Cl)c2)C2C(N3CCCC3)CCCC21 (racemic) [Example 78]	64%	100 to 1000 nM	

SMILES	activation at 1 µM	EC50 (GTPγS EC50 (nM))	other results
CCOC(=O)N1CCN(C(=O)Cc2ccc(Cl)c(Cl)c2)C2C(N3CCCC3)CCCC21 (racemic) [O, reference compound]			activation (% of control) at 1 μM: 88 % of control; EC50 [1]: 150 nM
COC(=O)N1CCN(C(=O)Cc2ccc(Cl)c(Cl)c2)C2C(N3CCC(O)CC3)CCCC21 (racemic) [Example 88]			% activation functional assay at 1 μM: 107%; pEC50 (read-out: GTPγS EC50): > 8.00
COC(=O)N1CCN(C(=O)Cc2ccc(Cl)c(Cl)c2)C2C(N3CCC(O)C3)CCCC21 (stereo not drawn) [Example 11]	92%	10 to 100 nM	activation (% of control) at 1 μM (1 µM): 92 % of control; EC50 (EC50 (nM) [35S]GTPγS binding): 11.7 nM
COC(=O)N1CCN(C(=O)Cc2ccc(Cl)c(Cl)c2)C2C(N3CC=CCC3)CCCC21 (racemic) [Example 12]	96%	10 to 100 nM	
COC(=O)N1CCN(C(=O)Cc2ccc(Cl)c(Cl)c2)[C@@H]2[C@@H](N3CC[C@H](O)C3)CCC[C@@H]21 [Example 97]	113%	< 10 nM	
CC(C)NC(=O)N1CCN(C(=O)Cc2ccc(Cl)c(Cl)c2)C2C(N3CCCC3)CCCC21 (racemic) [Example 42]	96%	< 10 nM	
COC(=O)N1CCN(C(=O)Cc2cccc(Cl)c2)[C@@H]2[C@@H](N3CC[C@H](O)C3)CCC[C@@H]21 [Example 143]	102%	10 to 100 nM	
CC(C)OC(=O)COC(=O)N1CCN(C(=O)Cc2ccc(Cl)c(Cl)c2)[C@@H]2[C@@H](N3CCCC3)CCC[C@@H]21 [Example 107]	104%	< 10 nM	
COC(=O)N1CCN(C(=O)Cc2ccc3ccccc3c2)C2C(N3CCCC3)CCCC21 (racemic) [Example 10]	100%	10 to 100 nM	
COC(=O)N1CCN(C(=O)Cc2ccc(C(F)(F)F)cc2)[C@@H]2[C@@H](N3CC[C@H](O)C3)CCC[C@@H]21 [Example 139]	104%	< 10 nM	
CCC(=O)N1CCN(C(=O)Cc2ccc(Cl)c(Cl)c2)C2C(N3CCCC3)CCCC21 (racemic) [Example 25]	102%	< 10 nM	activation (% of control) at 1 μM: 102 % of control; EC50 (EC50 (nM) [35S]GTPγS binding): 2.55 nM
O=C(Cc1ccc(Cl)c(Cl)c1)N1CCN(Cc2cccnc2)C2CCCC(N3CCC(O)C3)C21 (mixture of isomers) [AC, reference compound]			activation (% of control) at 1 μM: 102 % of control; EC50 (EC50 (nM) [35S]GTPγS binding): 77 nM
NC(=O)C(=O)N1CCN(C(=O)Cc2ccc(Cl)c(Cl)c2)C2C(N3CCCC3)CCCC21 (racemic) [Example 66]	100%	10 to 100 nM	
CN(C)S(=O)(=O)N1CCN(C(=O)Cc2ccc(Cl)c(Cl)c2)C2C(N3CCCC3)CCCC21 (racemic) [Example 35]	108%	< 10 nM	
COC(=O)CNC(=O)N1CCN(C(=O)Cc2ccc(Cl)c(Cl)c2)C2C(N3CCCC3)CCCC21 (racemic) [Example 75]	113%	< 10 nM	
O=C(Cc1ccc(Cl)c(Cl)c1)N1CCN(Cc2ccccc2)[C@@H]2CCC[C@H](N3CCCC3)[C@H]21 (racemic) [H, reference compound]			activation (% of control) at 1 μM: 97 % of control; EC50 (EC50 (nM) [35S]GTPγS binding): 29 nM
COC(=O)c1ccc(C(=O)N2CCN(C(=O)Cc3ccc(Cl)c(Cl)c3)C3C(N4CCCC4)CCCC32)nc1 (racemic) [Example 85]	101%		
COC(=O)N1CCN(C(=O)Cc2ccc(F)c(F)c2)[C@@H]2[C@@H](N3CC[C@H](O)C3)CCC[C@@H]21 [Example 138]	108%	10 to 100 nM	
COC(=O)N1CCN(C(=O)Cc2cc(Cl)c3c(c2)OCCO3)C2C(N3CCCC3)CCCC21 (racemic) [Example 7]	101%	10 to 100 nM	
COC(=O)N1CCN(C(=O)Cc2cccc(C(F)(F)F)c2)[C@@H]2[C@@H](N3CC[C@H](O)C3)CCC[C@@H]21 [Example 142]	106%	10 to 100 nM	
O=C(O)CCC(=O)N1CCN(C(=O)Cc2ccc(Cl)c(Cl)c2)[C@H]2[C@H]1CCC[C@@H]2N1CCCC1 (racemic) [AE, reference compound]			activation (% of control) at 1 μM: 43 % of control; activation of the kappa opioid receptors at 1 μM: no or little activation; EC50 (EC50 (nM) [35S]GTPγS binding): > 1000 nM
COC(=O)N1CCN(C(=O)Cc2ccc(C(F)(F)F)c(F)c2)[C@@H]2[C@@H](N3CC[C@H](O)C3)CCC[C@@H]21 [Example 141]	99%	< 10 nM	
